pEC50: −log10 of the molar value.
Assays:
[1] = molecular target: T1, BIR3-mediated Caspase-9 inhibition (UniProt Q9R0I6); assay: Caspase-9 rescue assay (relief of BIR3-mediated Caspase-9 inhibition); assay type: biochemical, human Caspase-9; Rat or Chicken BIR3; settings: average EC50, substrate Ac-LEHD-amc, pH 6.5
T1 construct: Nothing is printed for this assay
Description: Additionally the compounds and compositions can be evaluated for their ability to achieve relief of BIR3-mediated Caspase-9 inhibition by measuring Caspase-9 reactivation. The fluorogenic substrate Ac-LEHD-7-amido-4-methylcoumarin is used in these methods. EC50 values of tested BIR3 inhibitors or Caspase-9 rescuers is calculated from the percentage of Caspase-9 reactivation in the mixtures containing serially diluted concentrations of tested compound. Typically, 10-point curves are generated for such EC50 determination.
Relief of BIR3-mediated Caspase-9 inhibition by BIR3 inhibitors was assayed by measuring Caspase-9 reactivation using the fluorogenic substrate Ac-LEHD-7-amido-4-methylcoumarin. A truncated form of human Caspase-9 that lacks the N-terminal Caspase recruitment domain (EPro-Caspase-9 or p35/p12) was used in the assay. This form of the enzyme has the full catalytic activity and the same substrate specificity as the full-length protein in the Apaf-1/Cytochrome C/dATP/Caspase-9 reconstituted system. Rat or Chicken BIR3 was used in this assay. […] This mixture was incubated for 40 min to allow equilibration at 25° C., and the assay progression was subsequently followed by monitoring the formation of fluorescent 7-amido-4-methylcoumarin over time at 460 nm using an excitation wavelength of 360 nm. […] EC50 values of tested BIR3 inhibitors or Caspase-9 rescuers were calculated from the percentage of Caspase-9 reactivation in the mixtures containing serially diluted concentrations of tested compound.

BIR3 domain of rat XIAP = BIR3 domain of rat XIAP (Rattus norvegicus, UniProt Q9R0I6); assay: Fluorescence polarization assay, binding to BIR3 from rat XIAP
Chain of BIR3 domain of rat XIAP (Q9R0I6 241-355): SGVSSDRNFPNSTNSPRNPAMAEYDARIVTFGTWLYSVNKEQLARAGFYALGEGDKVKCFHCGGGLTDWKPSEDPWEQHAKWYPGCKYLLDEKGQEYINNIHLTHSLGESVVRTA
Description: In fluorescence polarization assays a fluorescent probe is used. The binding affinity of compounds to BIR3 is measured by competitive displacement of a fluorescent probe using fluorescence polarization anisotropy. […] In other embodiments, the probe used is 6-(6-Hydroxy-3-oxo-3H-xanthen-9-yl)-N-(5-(2-methylamino-propionylamino)-6-oxo-6-[4-(1,2,3,4-tetrahydro-naphthalen-1-ylcarbamoyl)-thiazolidin-3-yl]-hexyl)-isophthalamic acid.
The binding affinity of compounds provided herein for rat BIR3 was measured by competitive displacement of a fluorescent probe using fluorescence polarization anisotropy. […] Control conditions were set up on each plate and include free probe 1 alone (5 nM), fully bound probe (5 μM BIR3+5 nM probe 1) and binding buffer blank. The-EC50 of binding was computed from a 4-parameter fit of the measured anisotropies using the SoftMax Pro 4.6 software package (Molecular Dynamics, Sunnyvale, Calif.).
Alternatively, probe 1 was substituted with probe 2: 6-(6-Hydroxy-3-oxo-3H-xanthen-9-yl)-N-{5-(2-methylamino-propionylamino)-6-oxo-6-[4-(1,2,3,4-tetrahydro-naphthalen-1-ylcarbamoyl)-thiazolidin-3-yl]-hexyl}-isophthalamic acid, for rat BIR3 and the concentrations of assay components changed. […] Controls were adjusted accordingly.

| Structure (SMILES) | pEC50 [1] | pEC50 (BIR3 domain of rat XIAP) |
| --- | --- | --- |
| CNC(C)C(=O)NC(C(=O)N1Cc2ccccc2CC1C(=O)NC(Cc1ccccc1)Cc1ccccc1)C(C)C (stereo not drawn) [2-[3-Methyl-2-(2-methylamino-propionylamino)-butyryl]-1,2,3,4-tetrahydro-isoquinoline-3-carboxylic acid (1-benzyl-2-phenyl-ethyl)-amide] | 5.00 to 6.00 | > 6.00 |
| CNC(C)C(=O)NC(C(=O)NC(CCCCNS(=O)(=O)C(F)(F)F)C(=O)NC1CCCc2ccccc21)C(C)C (stereo not drawn) [2-[3-Methyl-2-(2-methylamino-propionylamino)-butyrylamino]-6-trifluoromethanesulfonylamino-hexanoic acid (1,2,3,4-tetrahydro-naphthalen-1-yl)-amide] | < 5.00 | > 6.00 |
| CCCCC(NC(=O)C(NC(=O)C(C)NC)C(C)C)C(=O)NC1CCCc2ccccc21 (stereo not drawn) [2-[3-Methyl-2-(2-methylamino-propionylamino)-butyrylamino]-hexanoic acid (1,2,3,4-tetrahydro-naphthalen-1-yl)-amide] | 5.00 to 6.00 | > 6.00 |
| CNC(C)C(=O)NC(C(=O)NC(CC(=O)OCc1ccccc1)C(=O)NC1CCCc2ccccc21)C(C)C (stereo not drawn) [3-[3-Methyl-2-(2-methylamino-propionylamino)-butyrylamino]-N-(1,2,3,4-tetrahydro-naphthalen-1-yl)-succinamic acid benzyl ester] | 5.00 to 6.00 | > 6.00 |
| CNC(C)C(=O)NC(C(=O)N1Cc2ccccc2CC1C(=O)NN(c1ccccc1)c1ccccc1)C(C)C (stereo not drawn) [N-{1-[3-N′,N′-Diphenyl-hydrazinocarbonyl)-3,4-dihydro-1H-isoquinoline-2-carbonyl]-2-methyl-propyl}-2-methylamino-propionamide] | < 5.00 | < 5.00 |
| CNC(C)C(=O)NC(C(=O)N1CCCC1C(=O)NN(Cc1ccccc1)Cc1ccccc1)C(C)(C)C (stereo not drawn) [N-{1-[2-(N′,N′-Dibenzyl-hydrazinocarbonyl)-pyrrolidine-1-carbonyl]-2,2-dimethyl-propyl}-2-methylamino-propionamide] | 5.00 to 6.00 | > 6.00 |
| CNC(C)C(=O)NC(C(=O)NC(CCC(=O)OCc1ccccc1)C(=O)NC1CCCc2ccccc21)C(C)C (stereo not drawn) [4-[3-Methyl-2-(2-methylamino-propionylamino)-butyrylamino]-4-(1,2,3,4-tetrahydro-naphthalen-1-ylcarbamoyl)-butyric acid benzyl ester] | 5.00 to 6.00 | > 6.00 |
| CNC(C)C(=O)NC(C(=O)NC(CCN)C(=O)NC1CCCc2ccccc21)C(C)C (stereo not drawn) [N-[3-Amino-1-(1,2,3,4-tetrahydro-naphthalen-1-ylcarbamoyl)-propyl]-3-methyl-2-(2-methylamino-propionylamino)-butyramide] | 5.00 to 6.00 | > 6.00 |
| CNC(C)C(=O)NC(C(=O)NC(COCc1ccccc1)C(=O)NC1CCCc2ccccc21)C(C)C (stereo not drawn) [N-[2-Benzyloxy-1-(1,2,3,4-tetrahydro-naphthalen-1-ylcarbamoyl)-ethyl]-3-methyl-2-(2-methylamino-propionylamino)-butyramide] | 5.00 to 6.00 | > 6.00 |
| CNC(C)C(=O)NC(C(=O)NCC(=O)NC1CCCc2ccccc21)C(C)C (stereo not drawn) [3-Methyl-2-(2-methylamino-propionylamino)-N-[(1,2,3,4-tetrahydro-naphthalen-1-ylcarbamoyl)-methyl]-butyramide] | 5.00 to 6.00 | 5.00 to 6.00 |
| CCCNC(C)C(=O)NC(C(=O)N1CCCC1C(=O)NC1CCCc2ccccc21)C(C)(C)C (stereo not drawn) [1-[3,3-Dimethyl-2-(2-propylamino-propionylamino)-butyryl]-pyrrolidine-2-carboxylic acid (1,2,3,4-tetrahydro-naphthalen-1-yl)-amide] | 5.00 to 6.00 | > 6.00 |
| CN[C@@H](C)C(=O)N[C@H]1CCCN2CC[C@@H](C(=O)N[C@@H]3CCCc4ccccc43)N2C1=O [8-(2-Methylamino-propionylamino)-9-oxo-hexahydro-pyrazolo[1,2-a][1,2]diazepine-1-carboxylic acid (1,2,3,4-tetrahydro-naphthalen-1-yl)-amide] | 5.00 to 6.00 | > 6.00 |
| CNC(C)C(=O)NC(C(=O)NC(CCCCNS(=O)(=O)Cc1ccccc1)C(=O)NC1CCCc2ccccc21)C(C)C (stereo not drawn) [2-[3-Methyl-2-(2-methylamino-propionylamino]-butyrylamino]-6-phenylmethanesulfonylamino-hexanoic acid (1,2,3,4-tetrahydro-naphthalen-1-yl)-amide] | > 6.00 | > 6.00 |
| CC(C)CNC(C)C(=O)NC(C(=O)N1CCCC1C(=O)NC1CCCc2ccccc21)C(C)(C)C (stereo not drawn) [1-[2-(2-Isobutylamino-propionylamino)-3,3-dimethyl-butyryl]-pyrrolidine-2-carboxylic acid (1,2,3,4-tetrahydro-naphthalen-1-yl)-amide] | 5.00 to 6.00 | > 6.00 |

Continued, values first:

| pEC50 [1] | pEC50 (BIR3 domain of rat XIAP) | Structure (SMILES) |
| --- | --- | --- |
| > 6.00 | > 6.00 | CNC(C)C(=O)NC(CCCCNC(=O)OCC1c2ccccc2-c2ccccc21)C(=O)N1CSCC1C(=O)NC1CCCc2ccccc21 (stereo not drawn) [{5-(2-Methylamino-propionylamino)-6-oxo-6-[4-(1,2,3,4-tetrahydro-naphthalen-1-ylcarbamoyl)-thiazolidin-3-yl]-hexyl}-carbamic acid 9H-fluoren-9-ylmethyl ester] |
| > 6.00 | > 6.00 | CNC(C)C(=O)NC(C(=O)N1CCSC1C(=O)NC1CCCc2ccccc21)C(C)C (stereo not drawn) [3-[3-Methyl-2-(2-methylamino-propionylamino)-butyryl]-thiazolidine-2-carboxylic acid (1,2,3,4-tetrahydro-naphthalen-1-yl)-amide] |
| > 6.00 | > 6.00 | CNC(C)C(=O)NC(C(=O)N1C(C(=O)NC2CCCc3ccccc32)CC2CCCCC21)C(C)C (stereo not drawn) [1-[3-Methyl-2-(2-methylamino-propionylamino)-butyryl]-octahydro-indole-2-carboxylic acid (1,2,3,4-tetrahydro-naphthalen-1-yl)-amide] |
| > 6.00 | > 6.00 | CNC(C)C(=O)NC(C(=O)NC(CCCCN(C)C)C(=O)NC1CCCc2ccccc21)C(C)C (stereo not drawn) [6-Dimethylamino-2-[3-methyl-2-(2-methylamino-propionylamino)-butyrylamino]-hexanoic acid (1,2,3,4-tetrahydro-naphthalen-1-yl)-amide] |
| > 6.00 | > 6.00 | CNC(C)C(=O)NC(C(=O)NC(CCCCNS(=O)(=O)c1ccc(OC)cc1)C(=O)NC1CCCc2ccccc21)C(C)C (stereo not drawn) [6-(4-Methoxy-benzenesulfonylamino)-2-[3-methyl-2-(2-methylamino-propionylamino)-butyrylamino]-hexanoic acid (1,2,3,4-tetrahydro-naphthalen-1-yl)-amide] |
| > 6.00 | > 6.00 | CCCCS(=O)(=O)NCCCCC(NC(=O)C(NC(=O)C(C)NC)C(C)C)C(=O)NC1CCCc2ccccc21 (stereo not drawn) [6-(Butane-1-sulfonylamino)-2-[3-methyl-2-(2-methylamino-propionylamino)-butyrylamino]-hexanoic acid (1,2,3,4-tetrahydro-naphthalen-1-yl)-amide] |
| > 6.00 | > 6.00 | CNC(C)C(=O)NC(C(=O)N1CSC(C)(C)C1C(=O)NC1CCCc2ccccc21)C(C)C (stereo not drawn) [5,5-Dimethyl-3-[3-methyl-2-(2-methylamino-propionylamino)-butyryl]-thiazolidine-4-carboxylic acid (1,2,3,4-tetrahydro-naphthalen-1-yl)-amide] |

Reference: patent US20100190688A1, “Tetrapeptide analogs” (priority 2004, published 2010)
